Series [1] in a line: Drug retention in Wistar rat everted gut sac at 300 nM. Format: ADME, tissue-based, Intestine. The following applies: 0.3 µM.
A short description of series [2]: Drug absorption in Wistar rat small intestinal serosal fluid at 10000 nM incubated for 60 mins by HPLC-DAD analysis. Format: ADME. The following applies: 1 h, 10 µM.
Series [3] in a line: Drug absorption in Wistar rat small intestinal serosal fluid at 3000 nM incubated for 60 mins by HPLC-DAD analysis. The following applies: 1 h, 3 µM. The format is ADME.
A short description of series [4]: Drug absorption in Wistar rat small intestinal serosal fluid assessed as displacement of [3H]HEMADO from recombinant human A3 receptor expressed in CHO cells at 300 nM exposed to serosal fluid derived from 60 mins compound treated sac followed by further incubation for 3 hrs by scintillation counting based radioligand binding assay. The format is cell-based. The following applies: 0.3 µM.

Series [5] can be described thus: Drug absorption in Wistar rat small intestinal serosal fluid assessed as displacement of [3H]HEMADO from recombinant human A3 receptor expressed in CHO cells at 1000 nM exposed to serosal fluid derived from 60 mins compound treated sac followed by further incubation for 3 hrs by scintillation counting based radioligand binding assay. Format: cell-based. Conditions: 1 µM.

Series [6] can be described thus: Drug absorption in Wistar rat small intestinal serosal fluid assessed as displacement of [3H]HEMADO from recombinant human A3 receptor expressed in CHO cells at 3000 nM exposed to serosal fluid derived from 60 mins compound treated sac followed by further incubation for 3 hrs by scintillation counting based radioligand binding assay. The format is cell-based. The following applies: 3 µM.

Series [7] is described as follows: Drug absorption in Wistar rat small intestinal serosal fluid assessed as displacement of [3H]HEMADO from recombinant human A3 receptor expressed in CHO cells at 10000 nM exposed to serosal fluid derived from 60 mins compound treated sac followed by further incubation for 3 hrs by scintillation counting based radioligand binding assay. The following applies: 10 µM. Format: cell-based.

Series [8] is described as follows: Drug absorption in Wistar rat small intestinal mucosal fluid assessed as displacement of [3H]HEMADO from recombinant human A3 receptor expressed in CHO cells at 300 nM exposed to mucosal fluid derived from 60 mins compound treated sac followed by further incubation for 3 hrs by scintillation counting based radioligand binding assay. The format is cell-based, Mucosa of small intestine. The following applies: 0.3 µM.

Series [9] is described as follows: Drug absorption in Wistar rat small intestinal mucosal fluid assessed as displacement of [3H]HEMADO from recombinant human A3 receptor expressed in CHO cells at 1000 nM exposed to mucosal fluid derived from 60 mins compound treated sac followed by further incubation for 3 hrs by scintillation counting based radioligand binding assay. The format is cell-based, Mucosa of small intestine. The following applies: 1 µM.

Series [10] can be described thus: Drug absorption in Wistar rat small intestinal mucosal fluid assessed as displacement of [3H]HEMADO from recombinant human A3 receptor expressed in CHO cells at 3000 nM exposed to mucosal fluid derived from 60 mins compound treated sac followed by further incubation for 3 hrs by scintillation counting based radioligand binding assay. The following applies: 3 µM. Format: cell-based, Mucosa of small intestine.

Series [11] in a line: Drug absorption in Wistar rat small intestinal mucosal fluid assessed as displacement of [3H]HEMADO from recombinant human A3 receptor expressed in CHO cells at 10000 nM exposed to mucosal fluid derived from 60 mins compound treated sac followed by further incubation for 3 hrs by scintillation counting based radioligand binding assay. The format is cell-based, Mucosa of small intestine. Conditions: 10 µM.

Series [12] can be described thus: Drug retention in Wistar rat everted gut sac at 1000 nM. Format: ADME, tissue-based, Intestine. The following applies: 1 µM.
Series [13] in a line: Drug retention in Wistar rat everted gut sac at 3000 nM. Format: ADME, tissue-based, Intestine. Conditions: 3 µM.
A short description of series [14]: Drug retention in Wistar rat everted gut sac at 10000 nM. Format: ADME, tissue-based, Intestine. Conditions: 10 µM.
Series [15] can be described thus: Drug absorption in Wistar rat everted gut sac at 300 nM. Format: ADME, tissue-based, Intestine. The following applies: 0.3 µM.
Series [16] can be described thus: Drug absorption in Wistar rat everted gut sac at 1000 nM. The format is ADME, tissue-based, Intestine. Conditions: 1 µM.
Series [17] can be described thus: Drug absorption in Wistar rat everted gut sac at 3000 nM. Format: ADME, tissue-based, Intestine. The following applies: 3 µM.
Series [18] in a line: Drug absorption in Wistar rat everted gut sac at 10000 nM. The format is ADME, tissue-based, Intestine. The following applies: 10 µM.
Series [19] in a line: Apparent permeability of the compound across Wistar rat everted gut sac at 300 nM. Format: ADME, tissue-based, Intestine.
Series [20] in a line: Apparent permeability of the compound across Wistar rat everted gut sac at 1000 nM. Format: ADME, tissue-based, Intestine.
A short description of series [21]: Apparent permeability of the compound across Wistar rat everted gut sac at 3000 nM. The format is ADME, tissue-based, Intestine.
The nature of series [22]: Apparent permeability of the compound across Wistar rat everted gut sac at 10000 nM. The format is ADME, tissue-based, Intestine.

As for `CNC(=O)[C@H]1O[C@@H](n2cnc3c(NC)nc(C#Cc4ccccc4)nc32)[C@H](O)[C@@H]1O`, the Drug uptake in [1] is on record as 44%; in [12], 65%; in series [13] it was 59%; in [14], 67%. Further, the Drug absorption in [2] turned out to be 2000 nM; in series [3], 550 nM; in [4], 36 nM; in series [5], 119 nM; in series [6], 373 nM; in series [7], 1180 nM. Further, the Drug absorption is 133 nM in series [8]; 224 nM in [9]; 857 nM in series [10]; 2088 nM in series [11]; 12% in series [15]; 11.9% in series [16]. Further, the Drug absorption is listed as 12.4% in [17] and 11.8% in series [18]. Also, in series [19], the Papp at 0.3 µM was determined as 8.5 ×10⁻⁶ cm/s. Also, the Papp at 1 µM in [20] came to 8.4 ×10⁻⁶ cm/s. Further, the Papp at 3 µM in series [21] is 8.5 ×10⁻⁶ cm/s. Besides, the Papp at 10 µM in [22] came out at 8.4 ×10⁻⁶ cm/s.

For the origin of these results see ChEMBL document CHEMBL4433249, “New sensible method to quantize the intestinal absorption of receptor ligands” (Bioorg Med Chem, 2019).
